According to patent US20230112418A1, “COMPOUND AND RADIOACTIVE LABELING COMPOUND” (NIHON MEDI-PHYSICS CO., LTD., priority 2020, published 2023):

Key:
[1] = tested on: PC-3 tumor transplanted mice; assay: In vivo radioactivity distribution using PC-3 tumor transplanted mice
Experimental: Animal experiments were performed in accordance with the guidelines of Kyoto University Animal Experiment Committee. Male CB17/IcrJcl-Prkdc^scid mice were purchased from CLEA Japan, Inc. The animals were raised under 12 h/12 h day/night cycle conditions and freely fed with food and water. LNCaP cells (1.0×10^7 cells/mouse) or PC-3 cells (1.0×10^7 cells/mouse) were suspended in a mixed liquid (1:1,150 μL) of PBS and Matrigel manufactured by Corning Life Sciences Inc., and the suspension was subcutaneously transplanted to the right shoulder of each of the mice under isoflurane anesthesia. Thereafter, the mice were raised for 40 to 60 days.
A saline solution (185 kBq, 100 μL) of [^111In]In-PSMA-DA1 or [^111In]In-PSMA-DB was injected into each of LNCaP or PC-3 tumor transplanted mice via the tail vein thereof (n=3 in each group). The mice were euthanized 1, 4, 24, 48, 96, and 192 hours after the injection. Thereafter, blood and organs were collected, and the mass and radioactivity of each of the organs were measured.
A result thereof is indicated as a value (% ID/g) obtained by dividing the percentage (% ID) of the amount of radioactivity with respect to the amount of injected radioactivity (injected dose) by the mass of blood or the mass of an organ (g).

[2] = tested on: LNCaP tumor transplanted mice; assay: SPECT/CT using LNCaP tumor transplanted mice; type: in vivo; conditions: FIG. 7
Experimental: A saline solution (1.9 to 3.0 MBq, 150 μL) of [^111In]In-PSMA-DA1 or [^111In]In-PSMA-DB was injected into each of the LNCaP tumor transplanted mice generated by the above-described method via the tail vein thereof. SPECT/CT was performed with an FX3300 pre-clinical imaging system manufactured by Gamma Medica-Ideas 24 and 48 hours after the injection. Imaging was performed under isoflurane anesthesia using a pinhole collimator with a diameter of 1.0 mm at a rotation radius of 35 mm, a scan time of 70 seconds, and the number of times of imaging of 32. After SPECT, CT (tube voltage: 60 kV, tube current: 350 μA) was performed. Image reconstruction by a three-dimensional ordered subset expectation maximization method (8 subsets, 5 iterations) was performed on projection data of SPECT.
Results of SPECT/CT are illustrated in FIG. 7. In FIG. 7, a portion indicated by an arrow is a position where the tumor is present, and a portion indicated by a circle is a position where the kidney is present. The higher the SUV, the amount of radioactivity accumulated is large.

Accumulation: Blood ([1]; 1 hour after injection): 1.92 ± 0.27 % ID/g
Accumulation: Brain ([1]; 1 hour after injection): 0.06 ± 0.00 % ID/g
Accumulation: Heart ([1]; 1 hour after injection): 0.49 ± 0.05 % ID/g
Accumulation: Intestinal ([1]; 1 hour after injection): 0.48 ± 0.04 % ID/g
Accumulation: Kidney ([1]; 1 hour after injection): 49.5 ± 12.6 % ID/g
Accumulation: Liver ([1]; 1 hour after injection): 0.62 ± 0.03 % ID/g
Accumulation: Lung ([1]; 1 hour after injection): 1.36 ± 0.23 % ID/g
Accumulation: Muscle ([1]; 1 hour after injection): 0.21 ± 0.08 % ID/g
Accumulation: PC-3 tumor ([1]; 1 hour after injection): 0.61 ± 0.06 % ID/g
Accumulation: Pancreas ([1]; 1 hour after injection): 0.44 ± 0.06 % ID/g
Accumulation: Spleen ([1]; 1 hour after injection): 2.57 ± 0.39 % ID/g
Accumulation: Stomach ([1]; 1 hour after injection): 0.12 ± 0.04 % ID
SMILES: O=C([O-])CN1CCN(C(CCC(=O)NCCCC[C@H](NC(=O)N[C@@H](CCC(=O)O)C(=O)O)C(=O)O)C(=O)[O-])CCN(CC(=O)[O-])CCN(C(CCC(=O)Nc2ccccc2)C(=O)[O-])CC1.[111In+3] (stereo partly drawn) [[^111In]In-PSMA-DB]
Accumulation in the PC-3 tumor compared with the LNCaP tumor (in words) ([1]; same time point): lower than accumulation thereof in the LNCaP tumor at the same time point
SPECT/CT radioactivity accumulation in the LNCaP tumor (in words) ([2]; 24 and 48 hours after the injection): radioactivity accumulation was also observed in the LNCaP tumor
SPECT/CT kidney versus tumor radioactivity (in words) [2]: the accumulation was lower than that in the kidney
